Results on one molecule are retold here after ChEMBL document CHEMBL6071148, “Synthesis and biological evaluation of novel 3,6- amide and thioamide substituted- 2,3,4,9-tetrahydro-1H-carbazoles for anti-cancer activity” (Eur J Med Chem, 2024).

Each structure is given as a SMILES string. Calls of active or inactive are those of the source. The rule behind the calls is not given here.

For assay [1], the system named is MCF7. As to the kind of experiment: Cytotoxicity against human MCF7 cells assessed as inhibition of cell proliferation incubated for 72 hrs by MTT assay. In kind it is functional, cell-based. The conditions noted are these: MCF7, 72 h. (In general: Tetrazolium assays rely on reduction of a dye to a coloured formazan, in cell work by metabolically active cells.)

In the next assay the test system is HCT-116. The experiment in a line: Cytotoxicity against human HCT-116 cells assessed as inhibition of cell proliferation incubated for 72 hrs by MTT assay. It is filed as functional, cell-based. The conditions noted are these: HCT-116, 72 h.
For assay [2], the system named is MCF7. The experiment in a line: Inhibition of cell adhesion in human MCF7 cells assessed as reduction in cell aggregates formation at IC50 incubated for 48 hrs by inverted phase contrast microscopic analysis. It is filed as functional, cell-based.
Assay [3] deals with A549. As to the kind of experiment: Induction of cell cycle arrest in human A549 cells assessed as accumulation of cells at S phase at IC50 incubated for 24 hrs by PI staining based flow cytometric analysis (reference value: 39.41 +/- 2.54%). It is filed as functional. On the technique in general: A flow cytometer gives signals particle by particle.
The subject of assay [4] is MCF7. The experiment in a line: Induction of cell cycle arrest in human MCF7 cells assessed as accumulation of cells at S phase at IC50 incubated for 48 hrs by PI staining based flow cytometric analysis. It is filed as functional.
Assay [5] concerns MCF7. The experiment in a line: Induction of DNA damage in human MCF7 cells assessed as gammaH2AX positive cells at IC50 incubated for 48 hrs by PI staining based flow cytometric analysis (reference value: 7.58 +/- 1.23%). In kind it is functional.
The subject of assay [6] is A549. As to the kind of experiment: Induction of DNA damage in human A549 cells assessed as gammaH2AX positive cells at IC50 incubated for 48 hrs by PI staining based flow cytometric analysis (reference value: 4.90 +/- 0.50%). In kind it is functional.
In assay [7] the test system is Mitochondrial membrane. The experiment in a line: Induction of mitochondrial membrane depolarization in human A549 cells assessed as decrease in ratio of J-aggregates to J-monomer incubated for 24 hrs by JC-1 staining based flow cytometric analysis (reference value: 17.72 +/- 3.94%). In kind it is cell membranes.
For assay [8], the system named is Mitochondrial membrane. As to the kind of experiment: Induction of mitochondrial membrane depolarization in human A549 cells assessed as increase in mitochondrial fission by measuring appearance of shortened mitochondria by confocal microscopic analysis. In kind it is cell membranes.
In assay [9] the test system is Mitochondrial membrane. The experiment in a line: Induction of mitochondrial membrane depolarization in human MCF7 cells assessed as increase in mitochondrial fission by measuring appearance of shortened mitochondria by confocal microscopic analysis. It is filed as cell membranes.
The subject of assay [10] is Mitochondrial membrane. As to the kind of experiment: Disruption of mitochondrial membrane integrity in human A549 cells assessed as change in mitochondrial size by TEM analysis. It is filed as cell membranes.
Assay [11] concerns Mitochondrial membrane. The experiment in a line: Disruption of mitochondrial membrane integrity in human MCF7 cells assessed as change in mitochondrial size by TEM analysis. In kind it is cell membranes.
In assay [12] the test system is Mitochondrial membrane. The experiment in a line: Disruption of mitochondrial membrane integrity in human A549 cells assessed as presence of large mitochondria by TEM analysis. It is filed as cell membranes.
The subject of assay [13] is Mitochondrial membrane. The experiment in a line: Disruption of mitochondrial membrane integrity in human A549 cells assessed as presence of bloated mitochondria by TEM analysis. In kind it is cell membranes.
Assay [14] has as its system MCF7. The experiment in a line: Induction of apoptosis in human MCF7 cells assessed as increase in apoptotic cells incubated for 24 hrs by Annexin-V and 7-AAD staining based flow cytometric analysis (reference value: 5.70 +/- 1.56%). It is filed as functional.
Assay [15] deals with A549. As to the kind of experiment: Antitumor activity against human A549 cells xenografted in chicken embryo chorioallantoic membrane assessed as reduction in tumor size. In kind it is functional, cell-based. The conditions noted are these: dose 1.5-4.5 µM. (In xenograft studies the graft and the host belong to different species.)
For assay [16], the system named is A549. The experiment in a line: Antitumor activity against human A549 cells xenografted in chicken embryo chorioallantoic membrane assessed as necrosis at 1.5 to 4.5 uM by H and E staining based analysis. In kind it is functional, cell-based. The conditions noted are these: dose 1.5-4.5 µM.
Assay [17] has as its system MCF7. As to the kind of experiment: Antitumor activity against human MCF7 cells xenografted in chicken embryo chorioallantoic membrane assessed as necrosis at 1.5 to 4.5 uM by H and E staining based analysis. The conditions noted are these: dose 1.5-4.5 µM. It is filed as functional, cell-based.

Regarding `CC(=S)NC1CCc2[nH]c3ccc(Br)cc3c2C1` (stereo not drawn), the IC50 (commonly the point on the concentration scale where inhibition reaches its midpoint) stood at 3.81 µM with MCF7 [1] and 40 µM in the assay with HCT-116. Besides, the inhibition entry in the assay with MCF7 [2] was “Active”. The Activity was 27.15% in the assay with A549 [3]; 16.78% in the assay with MCF7 [5]; 11.98% with A549 [6]; 8.73 in the assay with Mitochondrial membrane [7]; 10.8% in the assay with MCF7 [14]; “Dose-Dependent Effect” with A549 [15]. Further, the result in the assay with MCF7 [4], in the assay on Mitochondrial membrane [8], in the assay with Mitochondrial membrane [9], in the assay on Mitochondrial membrane [10], in the assay on Mitochondrial membrane [11] and in the assay on Mitochondrial membrane [12] was Active. Besides, the outcome in the assay with Mitochondrial membrane [13], in the assay with A549 [16] and with MCF7 [17] was Active.
